For one test, the target named is hNAMPT protein (Homo sapiens (Human), UniProt P43490). Put plainly: NAMPT enzyme assay (TR-FRET/HTRF, BodiPY ligand, anti 6His-Tb). As to conditions: for inhibition at 1 µM: NAMPT inhibition at compound concentration 1 μM, read-out: Percent Inhibition; for IC50: NAMPT inhibition, IC50 range class, read-out: IC50. It counts as binding. The procedure, abridged: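 Compound or DMSO was incubated for 1 h at room temperature, protected from light, with BodiPY ligand and hNAMPT labelled by terbium anti-6His antibody. The 520 nm to 486 nm emission ratio after 320 nm excitation gave inhibition versus vehicle, from which concentration-response curves yielded IC50.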
Chain of hNAMPT protein (P43490 whole entry): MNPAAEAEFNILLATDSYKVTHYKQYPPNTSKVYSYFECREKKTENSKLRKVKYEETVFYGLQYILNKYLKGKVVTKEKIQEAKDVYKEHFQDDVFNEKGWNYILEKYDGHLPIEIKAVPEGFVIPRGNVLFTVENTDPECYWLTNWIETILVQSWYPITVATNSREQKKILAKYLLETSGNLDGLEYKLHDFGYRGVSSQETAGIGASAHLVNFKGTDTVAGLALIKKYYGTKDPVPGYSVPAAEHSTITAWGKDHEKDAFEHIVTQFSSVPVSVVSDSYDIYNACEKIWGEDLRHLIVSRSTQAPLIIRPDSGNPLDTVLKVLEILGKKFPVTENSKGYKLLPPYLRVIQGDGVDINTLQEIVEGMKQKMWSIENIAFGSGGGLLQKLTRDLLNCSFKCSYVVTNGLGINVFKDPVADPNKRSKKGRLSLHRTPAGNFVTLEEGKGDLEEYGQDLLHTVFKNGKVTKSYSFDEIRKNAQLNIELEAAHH
In general terms: TR-FRET usually uses a lanthanide donor and a delayed reading to cut background.

In a further test the test system is PC3 cells. Briefly: PC3 growth inhibition (Cell-titer glo, 72 hours). The following applies: Homo sapiens, PC-3; compound concentration 1.667 μM; PC3 cells, 72 hours, Cell-titer glo; read-out: Percent Inhibition (PC3 growth inhibition). It counts as cell-based. The procedure, abridged:
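Compounds in AIM serum-free medium were applied for 72 h at 37 °C, 5% CO2 to PC3 cells plated overnight from RPMI1640 culture. Luminescence after 10 min CellTiter-Glo, normalised to DMSO, gave % viability at 1 μM or 1.667 μM, or GI50/LD50.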

We go through 25 compounds from patent US10144742B2 (Millennium Pharmaceuticals, Inc., priority 2014, dated 2018).

Where only a bound is given, the exact number is not on record here.

For `Cc1nn(C)cc1-c1nc2cc(C(=O)NCCCc3ncc[nH]3)ccc2nc1-c1ccc(F)cc1` [Compound I-475, 3-(1,3-dimethyl-1H-pyrazol-4-yl)-2-(4-fluorophenyl)-N-[3-(1H-imidazol-2-yl)propyl]quinoxaline-6-carboxamide], on hNAMPT protein, the inhibition (commonly the change of the read-out against control, counted positive when it falls) at 1 µM was found to be 77% and the IC50 (as a rule, the midpoint of a concentration-inhibition curve) was 100 to 500 nM. Also, the inhibition at 1.667 µM in the test with PC3 cells worked out at 3%.

Take `O=C(NCCCc1ncc[nH]1)c1ccc2nc(Cc3ccc(Cl)cc3)c(-c3ccc(F)cc3)nc2c1` [Compound I-476]: at hNAMPT protein, the inhibition at 1 µM was 88% and the 50% inhibitory concentration (IC50) lay in the range of 100 to 500 nM. For the same compound, the inhibition at 1.667 µM with PC3 cells is 3%.

Consider `O=C(NCCCc1ncc[nH]1)c1ccc2nc(-c3ccccc3)c(-c3cccs3)nc2c1` [Compound I-477, N-[3-(1H-imidazol-2-yl)propyl]-2-phenyl-3-(2-thienyl)quinoxaline-6-carboxamide], for which, on hNAMPT protein, the inhibition at 1 µM is > 99% and the IC50 was < 100 nM. In addition, the inhibition at 1.667 µM with PC3 cells is 2%.

As to `CC(C)COc1nc2ccc(C(=O)NCCCc3ncc[nH]3)cc2nc1-c1ccc(F)cc1` [Compound I-478, 3-(4-fluorophenyl)-N-[3-(1H-imidazol-2-yl)propyl]-2-isobutoxyquinoxaline-6-carboxamide], at hNAMPT protein, the inhibition at 1 µM came out at 96% and the IC50 was < 100 nM. In the test with PC3 cells, the inhibition at 1.667 µM turned out to be 2%.

In the case of `Nc1ccc(-c2nc3cc(C(=O)NCCCc4ncc[nH]4)ccc3nc2-c2ccc(F)cc2)cc1` [Compound I-479, 3-(4-aminophenyl)-2-(4-fluorophenyl)-N-[3-(1H-imidazol-2-yl)propyl]quinoxaline-6-carboxamide], at hNAMPT protein, the inhibition at 1 µM was 75% and the IC50 lay in the range of 100 to 500 nM. Further, the inhibition at 1.667 µM in the test on PC3 cells was 3%.

Regarding `O=C(NCCCc1ncc[nH]1)c1ccc2nc(-c3ccc(F)cc3)c(-c3cc(Cl)ccc3F)nc2c1` [Compound I-480, 3-(5-Chloro-2-fluoro-phenyl)-2-(4-fluorophenyl)-N-[3-(1H-imidazol-2-yl)propyl]quinoxaline-6-carboxamide], on hNAMPT protein, the inhibition at 1 µM was found to be 100% and the half-inhibitory concentration (IC50) was < 100 nM. Besides, the inhibition at 1.667 µM in the test with PC3 cells came to 1%.

On to `COc1ccc(F)c(-c2nc3cc(C(=O)NCCCc4ncc[nH]4)ccc3nc2-c2ccc(F)cc2)c1` [Compound I-481, 3-(2-fluoro-5-methoxyphenyl)-2-(4-fluorophenyl)-N-[3-(1H-imidazol-2-yl)propyl]quinoxaline-6-carboxamide], for which, at hNAMPT protein, the inhibition at 1 µM stood at 98% and the 50% inhibitory concentration (IC50) is < 100 nM. In the test with PC3 cells, the inhibition at 1.667 µM was 2%.

`CC(C)Oc1nc2ccc(C(=O)NCCCc3c[nH]cn3)cc2nc1-c1ccc(F)cc1` [Compound I-482, 3-(4-Fluorophenyl)-N-[3-(1H-imidazol-4-yl)propyl]-2-isopropoxyquinoxaline-6-carboxamide]: at hNAMPT protein, the inhibition at 1 µM amounted to 72% and the 50% inhibitory concentration (IC50) lay in the range of 100 to 500 nM. The inhibition at 1.667 µM in the test with PC3 cells came to 2%.

With `O=C(NCCCc1ncc[nH]1)c1ccc2nc(-c3ccc(Cl)s3)c(-c3ccc(F)cc3)nc2c1` [Compound I-483, 2-(5-chloro-2-thienyl)-3-(4-fluorophenyl)-N-[3-(1H-imidazol-2-yl)propyl]quinoxaline-6-carboxamide], on hNAMPT protein, the inhibition at 1 µM amounted to 77% and the IC50 is 100 to 500 nM. For the same compound, the inhibition at 1.667 µM with PC3 cells turned out to be 2%.

For `COc1cccc(-c2nc3cc(C(=O)NCCCc4ncc[nH]4)ccc3nc2-c2ccc(F)cc2)c1` [Compound I-484, 2-(4-fluorophenyl)-N-[3-(1H-imidazol-2-yl)propyl]-3-(3-methoxyphenyl)quinoxaline-6-carboxamide], on hNAMPT protein, the inhibition at 1 µM came out at 99% and the half-inhibitory concentration (IC50) was < 100 nM. Further, the inhibition at 1.667 µM in the test on PC3 cells amounted to 2%.

In the case of `C[C@@H]1CN(c2nc3ccc(C(=O)NCCCc4ccc(N)nc4)cc3nc2-c2ccc(F)cc2)C[C@H](C)O1` [Compound I-485, N-[3-(6-aminopyridin-3-yl)propyl]-2-[cis-2,6-dimethylmorpholin-4-yl]-3-(4-fluorophenyl)quinoxaline-6-carboxamide], on hNAMPT protein, the inhibition at 1 µM turned out to be 96% and the IC50 is < 100 nM. Also, in the test on PC3 cells, the inhibition at 1.667 µM amounted to 2%.

Take `Cc1ccc(-c2nc3cc(C(=O)NCCCc4ncc[nH]4)ccc3nc2-c2ccc(F)cc2)cn1` [Compound I-486, 2-(4-fluorophenyl)-N-[3-(1H-imidazol-2-yl)propyl]-3-(6-methylpyridin-3-yl)quinoxaline-6-carboxamide]: at hNAMPT protein, the inhibition at 1 µM came to 78% and the IC50 lay within 100 to 500 nM. Further, the inhibition at 1.667 µM in the test on PC3 cells turned out to be 2%.

`O=C(NCc1ccc2nccn2c1)c1ccc2nc(-c3ccc(Cl)cc3)c(-c3ccc(Cl)cc3)nc2c1` [Compound I-487, 2,3-bis(4-chlorophenyl)-N-(imidazo[1,2-a]pyridin-6-ylmethyl)quinoxaline-6-carboxamide]: at hNAMPT protein, the inhibition at 1 µM worked out at 70% and the IC50 was 100 to 500 nM. For the same compound, in the test on PC3 cells, the inhibition at 1.667 µM was found to be 1%.

`COc1cc(-c2nc3cc(C(=O)NCCCc4ncc[nH]4)ccc3nc2-c2ccc(F)cc2)ccc1F` [Compound I-488, 3-(4-fluoro-3-methoxyphenyl)-2-(4-fluorophenyl)-N-[3-(1H-imidazol-2-yl)propyl]quinoxaline-6-carboxamide]: at hNAMPT protein, the inhibition at 1 µM is 98% and the IC50 was < 100 nM. The inhibition at 1.667 µM in the test with PC3 cells was found to be 2%.

For `O=C(NCCCc1ncc[nH]1)c1ccc2nc(OCCc3ccccn3)c(-c3ccc(F)cc3)nc2c1` [Compound I-489, 3-(4-fluorophenyl)-N-[3-(1H-imidazol-2-yl)propyl]-2-[2-(pyridin-2-yl)ethoxy]quinoxaline-6-carboxamide], on hNAMPT protein, the inhibition at 1 µM was > 99% and the half-inhibitory concentration (IC50) was < 100 nM. Besides, the inhibition at 1.667 µM with PC3 cells stood at 2%.

Regarding `O=C(NCCCc1ncc[nH]1)c1ccc2nc(OCC3CC3)c(-c3ccc(F)cc3)nc2c1` [Compound I-490, 2-(cyclopropylmethoxy)-3-(4-fluorophenyl)-N-[3-(1H-imidazol-2-yl)propyl]quinoxaline-6-carboxamide], at hNAMPT protein, the inhibition at 1 µM was found to be 95% and the concentration for half-maximal inhibition (IC50) is < 100 nM. For the same compound, the inhibition at 1.667 µM with PC3 cells was 2%.

In the case of `CC(C)Oc1nc2cc(F)c(C(=O)NCCCc3ncc[nH]3)cc2nc1-c1ccc(F)cc1` [Compound I-491, N-(3-(1H-imidazol-2-yl)propyl)-7-fluoro-3-(4-fluorophenyl)-2-isopropoxyquinoxaline-6-carboxamide], on hNAMPT protein, the inhibition at 1 µM was 83% and the IC50 was in the range of 100 to 500 nM. Further, the inhibition at 1.667 µM with PC3 cells stood at 4%.

Consider `COc1ccc(F)c(-c2nc3cc(C(=O)NCCCc4ncc[nH]4)ccc3nc2OC(C)C)c1` [Compound I-492, 3-(2-fluoro-5-methoxyphenyl)-N-[3-(1H-imidazol-2-yl)propyl]-2-isopropoxyquinoxaline-6-carboxamide], for which, on hNAMPT protein, the inhibition at 1 µM was 94% and the concentration for half-maximal inhibition (IC50) was < 100 nM. In addition, the inhibition at 1.667 µM in the test on PC3 cells worked out at 3%.

For `Cc1ccc(Cl)cc1-c1nc2cc(C(=O)NCCCc3ncc[nH]3)ccc2nc1-c1ccc(F)cc1` [Compound I-493, 3-(5-chloro-2-methylphenyl)-2-(4-fluorophenyl)-N-[3-(1H-imidazol-2-yl)propyl]quinoxaline-6-carboxamide], at hNAMPT protein, the inhibition at 1 µM is 98% and the IC50 was < 100 nM. The inhibition at 1.667 µM with PC3 cells was determined as 1%.

Take `Cc1ncsc1-c1nc2cc(C(=O)NCCCc3ncc[nH]3)ccc2nc1-c1ccc(F)cc1` [Compound I-494, 2-(4-fluorophenyl)-N-[3-(1H-imidazol-2-yl)propyl]-3-(4-methyl-1,3-thiazol-5-yl)quinoxaline-6-carboxamide]: on hNAMPT protein, the inhibition at 1 µM was > 99% and the IC50 is < 100 nM. Also, the inhibition at 1.667 µM in the test on PC3 cells stood at 3%.

For the compound `N#CCCOc1nc2ccc(C(=O)NCCCc3ncc[nH]3)cc2nc1-c1ccc(F)cc1` [Compound I-496, 2-(2-cyanoethoxy)-3-(4-fluorophenyl)-N-[3-(1H-imidazol-2-yl)propyl]quinoxaline-6-carboxamide], at hNAMPT protein, the inhibition at 1 µM worked out at 70% and the IC50 fell in the range of 100 to 500 nM. Also, the inhibition at 1.667 µM in the test with PC3 cells is > 99%.

Turning to `Cc1ccc(-c2nc3cc(C(=O)NCCCc4ncc[nH]4)ccc3nc2-c2ccc(F)cc2)cc1` [Compound I-497, 2-(4-fluorophenyl)-N-[3-(1H-imidazol-2-yl)propyl]-3-(4-methylphenyl)quinoxaline-6-carboxamide], on hNAMPT protein, the inhibition at 1 µM came out at 80% and the 50% inhibitory concentration (IC50) lay within 100 to 500 nM. In addition, the inhibition at 1.667 µM in the test on PC3 cells is 2%.

In the case of `O=C(NCCCc1ncc[nH]1)c1ccc2nc(OCc3cccc(Cl)c3)c(-c3ccc(F)cc3)nc2c1` [Compound I-498, 2-[(3-chlorobenzyl)oxy]-3-(4-fluorophenyl)-N-[3-(1H-imidazol-2-yl)propyl]quinoxaline-6-carboxamide], on hNAMPT protein, the inhibition at 1 µM was 84% and the 50% inhibitory concentration (IC50) was < 100 nM. The inhibition at 1.667 µM in the test on PC3 cells was determined as 3%.

As for `O=C(NCCCc1ncc[nH]1)c1ccc2nc(-c3ccc(F)cc3)c(-c3ccc(Cl)s3)nc2c1` [Compound I-499, 3-(5-chloro-2-thienyl)-2-(4-fluorophenyl)-N-[3-(1H-imidazol-2-yl)propyl]quinoxaline-6-carboxamide], on hNAMPT protein, the inhibition at 1 µM worked out at 98% and the IC50 was < 100 nM. In the test on PC3 cells, the inhibition at 1.667 µM is 2%.

On to `O=C(NCCCc1ncc[nH]1)c1ccc2nc(OCC3CCCC3)c(-c3ccc(F)cc3)nc2c1` [Compound I-500, 2-(cyclopentylmethoxy)-3-(4-fluorophenyl)-N-[3-(1H-imidazol-2-yl)propyl]quinoxaline-6-carboxamide], for which, on hNAMPT protein, the inhibition at 1 µM amounted to 93% and the IC50 is < 100 nM. Also, in the test with PC3 cells, the inhibition at 1.667 µM was found to be 3%.
